Entries after “also recorded” stand apart in the source; their conditions may differ.
What was measured:
Type in all cases: cell-based, human
hMSCs = test: Alkaline phosphatase (ALP) activity of hMSCs in osteogenic media
Description: For non-mineralizing osteogenic differentiation, hMSCs were plated in 12-well plates at 100 cells cm^−2. Upon reaching about 70% confluency, the media was changed to osteogenic base media (OBM) containing 50 μg mL^−1 ascorbic acid and 5 mM β-glycerol phosphate and either GW9662 or DMSO. Media was changed every 2 days for 8-10 days following measurement of ALP activity. For this purpose, the monolayer was washed with PBS and then with ALP reaction buffer (100 mM Tris-HCl, pH 9, containing 100 mM KCl and 1 mM MgCl2). One half mL of ALP buffer then 0.5 mL p-nitrophenol phosphate (PNPP) was rapidly added to the wells. ALP activity was measured as the rate of PNPP conversion to p-nitrophenolate by monitoring the absorbance at 405 nm every 30 seconds for 9 minutes using a plate reader. The rates were normalized against cell number and statistically analyzed using one-way analysis of variance (ANOVA) and Tukey post test for multiple comparisons or by Student's t-test, for single, unrelated comparisons.
Early osteogenic differentiation and alkaline phosphatase assays. MSCs were plated in 6-well plates at an initial plating density of 100 cells per cm^2 and cultured in standard complete media for 6 days until semi-confluence (approximately 5,000 cells per cm^2). Osteogenic base media consisting of complete media containing 5 mM β-GP and 50 μg mL^−1 ascorbate-2-phosphate and the appropriate inhibitor or vehicle was then used to induce early osteogenic differentiation. Assays were allowed to proceed for 8-10 days with changes of media every 2 days. ALP assays were performed as previously described (Gunn et al., 2006, Stem Cells 24:986-991).
(§1) In order to characterize the influence of 7AIPM on osteogenic differentiation, hMSC's from two donors were cultured as described elsewhere herein with the addition of varying concentrations of the compound or vehicle to the media. Samples of the media were collected daily for analysis. These samples were analyzed for the presence of OPG and Dkk-1 using ELISA. Alkaline phosphatase activity of the monolayers and cell numbers were measured using a spectrophotometer.

Dkk-1 = Dkk-1 secretion by ELISA; conditions: 7AIPM in osteogenic culture
Description: as §1, with “ELISAs. ELISA for CXCL6, Dkk-1, GROa, GRO13, and OPG were carried out by using nonbiotinylated polyclonal capture antibodies and biotinylated detection antibodies that were commercially acquired on coated 96-well plates The biotinylated […] antibodies were detected by using horseradish peroxidase-conjugated streptavidin and TMB substrate. ELISA for IL-lb were performed by using commercially acquired kits. In” for “In”

osteoprotegerin (OPG) = test: OPG secretion by ELISA; conditions: 7AIPM in osteogenic culture
Description: as §1, with “ELISAs. ELISA for CXCL6, Dkk-1, GROa, GRO13, and OPG were carried out by using nonbiotinylated polyclonal capture antibodies and biotinylated detection antibodies that were commercially acquired on coated 96-well plates The biotinylated […] antibodies were detected by using horseradish peroxidase-conjugated streptavidin and TMB substrate. ELISA for IL-lb were performed by using commercially acquired kits. In” for “In”

Substance | ALP activity (hMSCs; MSC monolayers, osteogenic medium with increasing doses, four days) | Dkk-1 concentration (Dkk-1) | OPG concentration (osteoprotegerin (OPG)) | ALP activity (hMSCs; osteogenic media without dexamethasone, 8 days)
7-azaindolyl-pyrazinylmaleimide [7AIPM] | increased; also recorded: biphasic dose dependant effect | decrease | increased | 
Dldc-1: Wnt inhibitor added to block canonical Wnt signaling |  |  |  | attenuated

Source: patent US9452185B2, “Mesenchymal stem cells and supports for tissue regeneration, repair and reconstruction” (THE TEXAS A&M UNIVERSITY SYSTEM, priority 2009, dated 2016)
